The NIST ThermoML archive (doi:10.1021/je201102x)
Numbers after ± are expanded uncertainties.

Experiment: xn = mol fraction of the nth substance listed
Settings: 101 kPa, Liquid, Vibrating tube method

CCC(=O)O [propanoic acid] + CC(C)CO
mass density [kg/m3]
Settings | 283.15 K | 293.15 K | 303.15 K | 313.15 K | 323.15 K | 333.15 K
x1 = 0.0803 | 815.48 ± 0.23 | 811.49 ± 0.23 | 807.47 ± 0.23 | 799.27 ± 0.23 | 790.86 ± 0.23 | 782.19 ± 0.23
x1 = 0.1616 | 829.5 ± 0.22 | 825.39 ± 0.22 | 821.25 ± 0.22 | 812.83 ± 0.22 | 804.2 ± 0.22 | 795.34 ± 0.22
x1 = 0.2482 | 844.79 ± 0.2 | 840.55 ± 0.2 | 836.28 ± 0.2 | 827.63 ± 0.21 | 818.79 ± 0.21 | 809.74 ± 0.21
x1 = 0.3212 | 857.93 ± 0.19 | 853.59 ± 0.19 | 849.22 ± 0.19 | 840.38 ± 0.2 | 831.37 ± 0.2 | 822.15 ± 0.2
x1 = 0.4008 | 872.54 ± 0.18 | 868.09 ± 0.18 | 863.61 ± 0.18 | 854.56 ± 0.18 | 845.37 ± 0.19 | 836 ± 0.19
x1 = 0.4828 | 887.9 ± 0.17 | 883.34 ± 0.17 | 878.76 ± 0.17 | 869.5 ± 0.17 | 860.12 ± 0.17 | 850.57 ± 0.18
x1 = 0.5602 | 902.63 ± 0.16 | 897.96 ± 0.16 | 893.27 ± 0.16 | 883.83 ± 0.16 | 874.27 ± 0.16 | 864.57 ± 0.17
x1 = 0.6413 | 918.47 ± 0.15 | 913.69 ± 0.15 | 908.9 ± 0.15 | 899.25 ± 0.15 | 889.49 ± 0.15 | 879.62 ± 0.15
x1 = 0.7201 | 934.21 ± 0.13 | 929.32 ± 0.13 | 924.42 ± 0.14 | 914.55 ± 0.14 | 904.62 ± 0.14 | 894.59 ± 0.14
x1 = 0.8016 | 950.86 ± 0.12 | 945.84 ± 0.12 | 940.81 ± 0.12 | 930.72 ± 0.13 | 920.57 ± 0.13 | 910.32 ± 0.13
x1 = 0.8777 | 966.86 ± 0.11 | 961.72 ± 0.11 | 956.56 ± 0.11 | 946.23 ± 0.12 | 935.86 ± 0.12 | 925.44 ± 0.12
x1 = 0.9586 | 984.47 ± 0.1 | 979.16 ± 0.1 | 973.84 ± 0.1 | 963.22 ± 0.11 | 952.58 ± 0.11 | 941.92 ± 0.11

CCC(=O)O [propanoic acid] + CCC(C)O
mass density [kg/m3]
Settings | 283.15 K | 293.15 K | 303.15 K | 313.15 K | 323.15 K | 333.15 K
x1 = 0.082 | 819.64 ± 0.23 | 815.41 ± 0.23 | 811.1 ± 0.23 | 802.26 ± 0.23 | 793.05 ± 0.23 | 783.48 ± 0.23
x1 = 0.1717 | 834.26 ± 0.21 | 829.91 ± 0.21 | 825.51 ± 0.21 | 816.5 ± 0.22 | 807.2 ± 0.22 | 797.57 ± 0.22
x1 = 0.2442 | 846.52 ± 0.2 | 842.08 ± 0.2 | 837.6 ± 0.2 | 828.46 ± 0.21 | 819.08 ± 0.21 | 809.41 ± 0.21
x1 = 0.32 | 859.63 ± 0.19 | 855.12 ± 0.19 | 850.56 ± 0.19 | 841.3 ± 0.2 | 831.82 ± 0.2 | 822.11 ± 0.2
x1 = 0.4004 | 873.99 ± 0.18 | 869.39 ± 0.18 | 864.76 ± 0.18 | 855.37 ± 0.18 | 845.79 ± 0.19 | 836 ± 0.19
x1 = 0.4773 | 887.98 ± 0.17 | 883.3 ± 0.17 | 878.59 ± 0.17 | 869.08 ± 0.17 | 859.4 ± 0.18 | 849.54 ± 0.18
x1 = 0.5609 | 903.61 ± 0.16 | 898.85 ± 0.16 | 894.07 ± 0.16 | 884.41 ± 0.16 | 874.61 ± 0.16 | 864.65 ± 0.17
x1 = 0.6404 | 918.81 ± 0.15 | 913.96 ± 0.15 | 909.09 ± 0.15 | 899.28 ± 0.15 | 889.36 ± 0.15 | 879.3 ± 0.15
x1 = 0.7186 | 934.19 ± 0.13 | 929.25 ± 0.13 | 924.29 ± 0.14 | 914.32 ± 0.14 | 904.27 ± 0.14 | 894.07 ± 0.14
x1 = 0.8009 | 950.85 ± 0.12 | 945.79 ± 0.12 | 940.74 ± 0.12 | 930.57 ± 0.13 | 920.34 ± 0.13 | 910.02 ± 0.13
x1 = 0.8776 | 966.89 ± 0.11 | 961.72 ± 0.11 | 956.55 ± 0.11 | 946.17 ± 0.12 | 935.75 ± 0.12 | 925.26 ± 0.12
x1 = 0.9593 | 984.54 ± 0.1 | 979.23 ± 0.1 | 973.9 ± 0.1 | 963.26 ± 0.11 | 952.61 ± 0.11 | 941.92 ± 0.11

CCC(C)(C)O [2-methylbutan-2-ol] + CCC(=O)O
mass density [kg/m3]
Settings | 283.15 K | 293.15 K | 303.15 K | 313.15 K | 323.15 K | 333.15 K
x2 = 0.0822 | 819.84 ± 0.14 | 815.21 ± 0.14 | 810.53 ± 0.14 | 801.01 ± 0.14 | 791.2 ± 0.15 | 781.09 ± 0.15
x2 = 0.16 | 830.58 ± 0.13 | 825.94 ± 0.14 | 821.26 ± 0.14 | 811.74 ± 0.14 | 801.99 ± 0.14 | 791.96 ± 0.15
x2 = 0.2419 | 842.49 ± 0.13 | 837.85 ± 0.13 | 833.18 ± 0.13 | 823.69 ± 0.14 | 814 ± 0.14 | 804.06 ± 0.14
x2 = 0.3189 | 854.39 ± 0.13 | 849.75 ± 0.13 | 845.08 ± 0.13 | 835.62 ± 0.13 | 825.96 ± 0.14 | 816.07 ± 0.14
x2 = 0.4024 | 868.02 ± 0.12 | 863.37 ± 0.13 | 858.68 ± 0.13 | 849.19 ± 0.13 | 839.53 ± 0.13 | 829.68 ± 0.14
x2 = 0.4806 | 881.53 ± 0.12 | 876.85 ± 0.12 | 872.13 ± 0.12 | 862.6 ± 0.13 | 852.91 ± 0.13 | 843.03 ± 0.13
x2 = 0.5588 | 895.71 ± 0.12 | 890.97 ± 0.12 | 886.21 ± 0.12 | 876.6 ± 0.12 | 866.84 ± 0.13 | 856.93 ± 0.13
x2 = 0.6429 | 911.85 ± 0.11 | 907.05 ± 0.12 | 902.23 ± 0.12 | 892.5 ± 0.12 | 882.64 ± 0.12 | 872.64 ± 0.13
x2 = 0.7218 | 927.93 ± 0.11 | 923.03 ± 0.11 | 918.13 ± 0.11 | 908.25 ± 0.12 | 898.28 ± 0.12 | 888.18 ± 0.12
x2 = 0.785 | 941.5 ± 0.11 | 936.52 ± 0.11 | 931.53 ± 0.11 | 921.51 ± 0.11 | 911.41 ± 0.12 | 901.2 ± 0.12
x2 = 0.8812 | 963.57 ± 0.1 | 958.43 ± 0.1 | 953.3 ± 0.11 | 942.98 ± 0.11 | 932.62 ± 0.11 | 922.2 ± 0.11
x2 = 0.9561 | 982.1 ± 0.1 | 976.8 ± 0.1 | 971.51 ± 0.1 | 960.92 ± 0.11 | 950.3 ± 0.11 | 939.64 ± 0.11
